Assay results from patent US10568819B2, “Skin enhancing compositions and methods” (Sytheon Limited, priority 2016, dated 2020).
Like-named read-outs stand apart in the source and are kept apart here.

Assays:
[1] = Antioxidant power: peroxynitrite
[2] = Antioxidant power / quenching: singlet oxygen
Method: Separately, a study of the singlet oxygen quenching ability of Compound 1 and Compound 7 were evaluated.

[3] = Antioxidant power: super oxide anion
[4] = Antioxidant power: hydroxyl radicals
[5] = Antioxidant power: peroxyl radicals
[6] = Lipid peroxidation, squalene substrate; assay type: biochemical; details: Squalene used as a substrate
[7] = system: NOX; details: UVA; Fibroblasts; 50 μg/ml
[8] = system: Fibroblasts; assay: UVA-induced delayed formation of CPDs (dCPDs) in fibroblasts; assay type: cell-based; details: 25 μg/ml
Method: (§1) A second study was carried out, similar to the first, except that this time the analysis was in assessing the efficacy, if any, of the presently taught aryl alkanones in reducing UVA-induced delayed formation of CPDs (dCPDs).

[9] = system: NOX; details: UVA; Keratinocytes; 50 μg/ml
[10] = system: Keratinocytes; assay: UVA- and UVB-induced formation of immediate CPDs (iCPDs) in keratinocytes; assay type: cell-based
Method: (§2) Given the significance of CPDs in skin aging and damage, a study was undertaken to determine whether compounds of the present invention have the ability to directly protect the genome of skin cells from the mutagenic effect of UV light as evidenced by CPDs inhibition. The study was conducted in accordance with the method described by Mitchell et. al. [Mitchell, D L, The relative cytotoxicity of (6-4) photoproducts and cyclobutane dimers in mammalian cells. Photochem Photobiol, 48(1):51-57, 1988)] pursuant to which UVA- and UVB-induced formation of immediate CPDs (iCPDs) were determined.

[11] = system: Fibroblasts; assay: UVA- and UVB-induced formation of immediate CPDs (iCPDs) in fibroblasts; assay type: cell-based; details: 25 μg/ml
Method: as §2

[12] = system: Keratinocyte; assay: UVA-induced delayed formation of CPDs (dCPDs) in keratinocytes; assay type: cell-based; details: 25 μg/ml
Method: as §1

[13] = system: ϕX-174 RF bacteriophage supercoiled DNA; assay: UVA/AGE-albumin-induced DNA strand breaks (QPES); assay type: biochemical
Method: A study was undertaken to determine whether the aryl alkanones of the present invention have the ability to reduce photooxidative stress by physical Quencher of Photo-excited States (QPES) mechanism under UV light employing the method of Wondarak et al, (J Invest Dermatol, 119:489, 2002). Briefly, 100 ng (experiment 1) or 200 ng (experiment 2) of ϕX-174 RF bacteriophage supercoiled DNA was irradiated in the presence of […] of filtered glycated bovine serum albumin (20 mg/ml BSA reacted for 3 weeks with 180 mg/ml glucose at 37° C.) in a final volume of 100 μl. The irradiation was performed in a 96 well plate without lid, with UVA lamp (Ultra-lum UVA-28T at 6.4 mW/cm^2) for 2 h, delivering a total energy of […]. Following irradiation 10 μl of the reaction mixture was mixed with 2 μl of loading buffer, resolved in 1% agarose gel (at 90V for 20 min) and stained with ethidium bromide ([…]). The intact (supercoiled) lower (faster-migrating) band and the UVA-damaged (uncoiled) higher (slower-migrating) band were visualized using Hoefer transilluminator. Photographs of the gels were then processed using NIH ImageJ and ratio of unwound (damaged) to supercoiled (intact) bands was calculated and used to assess the protective activity of test materials.

[14] = molecular target: iNOS (Homo sapiens, UniProt P35228); assay: Reduction of iNOS activity; assay type: biochemical; details: read-out: Reduction of iNOS activity, Amount used in μM (IC50) values)
Sequence of iNOS (P35228 whole entry, species assumed): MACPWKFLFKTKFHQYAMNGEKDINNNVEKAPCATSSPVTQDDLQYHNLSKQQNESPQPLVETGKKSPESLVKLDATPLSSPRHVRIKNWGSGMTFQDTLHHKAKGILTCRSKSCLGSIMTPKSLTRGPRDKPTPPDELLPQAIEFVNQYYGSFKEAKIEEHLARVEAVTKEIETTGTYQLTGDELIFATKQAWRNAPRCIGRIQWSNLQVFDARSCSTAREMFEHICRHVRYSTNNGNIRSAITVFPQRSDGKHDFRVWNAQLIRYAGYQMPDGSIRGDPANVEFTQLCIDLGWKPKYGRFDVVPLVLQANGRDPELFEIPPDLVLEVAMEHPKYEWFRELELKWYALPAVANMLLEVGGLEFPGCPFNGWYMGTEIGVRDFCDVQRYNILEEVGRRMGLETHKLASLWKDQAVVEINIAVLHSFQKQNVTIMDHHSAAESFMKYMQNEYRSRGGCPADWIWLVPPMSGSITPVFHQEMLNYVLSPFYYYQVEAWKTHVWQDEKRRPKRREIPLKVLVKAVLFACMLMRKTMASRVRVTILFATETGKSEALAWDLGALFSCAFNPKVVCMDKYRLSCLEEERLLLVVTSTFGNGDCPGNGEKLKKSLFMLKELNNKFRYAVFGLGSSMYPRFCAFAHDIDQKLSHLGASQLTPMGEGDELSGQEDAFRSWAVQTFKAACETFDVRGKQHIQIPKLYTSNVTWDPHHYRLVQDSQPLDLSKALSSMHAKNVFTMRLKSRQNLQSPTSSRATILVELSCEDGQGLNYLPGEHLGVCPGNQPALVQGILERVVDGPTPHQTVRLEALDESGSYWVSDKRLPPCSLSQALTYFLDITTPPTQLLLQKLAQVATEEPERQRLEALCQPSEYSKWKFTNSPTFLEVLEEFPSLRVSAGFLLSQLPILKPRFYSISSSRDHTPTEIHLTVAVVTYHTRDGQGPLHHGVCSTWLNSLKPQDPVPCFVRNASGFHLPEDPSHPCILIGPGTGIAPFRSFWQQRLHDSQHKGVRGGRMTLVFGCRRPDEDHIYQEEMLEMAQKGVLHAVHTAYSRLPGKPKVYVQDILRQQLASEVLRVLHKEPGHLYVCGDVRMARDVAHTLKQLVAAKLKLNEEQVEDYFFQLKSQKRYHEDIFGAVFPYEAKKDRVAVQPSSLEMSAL
From the text: Accordingly, an investigation was undertaken to assess the efficacy of compounds according to the present teaching as compared to compounds that are closely structurally related thereto in inhibiting NO product.

Tocopherol
Antioxidant Power, Peroxynitrite [1]: 1 μmole Trolox Equivalent/gram
Antioxidant Power, Singlet oxygen [2]: 1,110 μmole Trolox Equivalent/gram
Antioxidant Power, Super oxide anion [3]: Not detected
Antioxidant Power, Hydroxyl radicals [4]: Not detected
Antioxidant Power, Peroxyl radicals [5]: 813 μmole Trolox Equivalent/gram
Lipid peroxidation IC50 value [6]: 30 µg/mL

CCOC(=O)C(Cc1cc(OC)c(OC)c(OC)c1)C(C)=O (centres unmarked) [Compound 8]
reduction of NOX activity [7]: −14%
UVA/% Reduction in dCPDs vs. control, 0 hr. (Reduction in iCPDs) ([8]; 0 hr., product incubated for 24 hrs. plus UVA irradiation): ^+0 hr.: No effect
UVA/% Reduction in dCPDs vs. control, 1 hr. ([8]; 1 hr., product incubated for 24 hrs. plus UVA irradiation): 1 hr.: ↓35%
UVA/% Reduction in dCPDs vs. control, 2 hr. ([8]; 2 hr., product incubated for 24 hrs. plus UVA irradiation): 2 hr.: ↓52%
UVA/% Reduction in dCPDs vs. control, 4 hr. ([8]; 4 hr., product incubated for 24 hrs. plus UVA irradiation): 4 hr.: ↓32%
reduction of NOX activity [9]: −17%
UVA/% Reduction in iCPDs vs. Control ([10]; 50 μg/ml): 42%^+

CCOC(=O)C(Cc1ccc(O)c(OC)c1)C(C)=O (centres unmarked) [Compound 2]
UVB/% Reduction iCPDs vs. Control [11]: 44%
UVA/% Reduction in dCPDs vs. control, 0 hr. (Reduction in iCPDs) ([12]; 0 hr.): ^+0 hr.: ↓26%
UVA/% Reduction in dCPDs vs. control, 1 hr. ([12]; 1 hr.): 1 hr.: ↓13%
UVA/% Reduction in dCPDs vs. control, 2 hr. ([12]; 2 hr.): 2 hr.: ~0%
UVA/% Reduction in iCPDs vs. Control ([10]; 25 μg/ml): 26%
UVB/% Reduction iCPDs vs. Control ([10]; 25 μg/ml): 25%

COc1cc(CC(C(C)=O)C(C)=O)cc(OC)c1OC [Compound 7]
Antioxidant Power, Singlet oxygen [2]: 6,359+ μmole Trolox Equivalent/gram
Singlet oxygen quenching ([2]; ±10% error): 6,359 μMole Trolox Equivalent/g
% DNA strand breaks ([13]; 0.03 μg/ml): 33%
% DNA strand protection ([13]; 0.03 μg/ml): 67%
% DNA strand breaks ([13]; 0.1 μg/ml): 15%
% DNA strand protection ([13]; 0.1 μg/ml): 85%

COc1cc(CCC(C)=O)ccc1O [Zingerone, reference compound]
IC50 [14]: 364 µM
UVA/% Reduction in iCPDs vs. Control ([11]; UVA): No effect
UVB/% Reduction iCPDs vs. Control [11]: No effect
UVA/% Reduction in dCPDs vs. control ([12]; time not given): No effect
UVA/% Reduction in dCPDs vs. control ([8]; time not given): No effect
UVA/% Reduction in iCPDs vs. Control ([10]; 25 μg/ml): No effect
UVB/% Reduction iCPDs vs. Control ([10]; 25 μg/ml): No effect
